These results are taken from PMC5218480 (PLoS ONE, 2017).

This assay concerns MV-4-11 cells. The assay is described as follows: Gene expression microarray analysis (Affymetrix PrimeView) and GSEA. To be noted: ProbeSet 11720270_a_at; LIST B. On the set-up: RFU PODN (11730768_x_at) / Fold change /veh PODN (11730768_x_at) / RFU LINC00158 (11744669_a_at) / Fold change /veh LINC00158 (11744669_a_at) / RFU DUSP10 (11751237_a_at) / Fold change /veh DUSP10 (11751237_a_at) / RFU ID3 (11757404_x_at) / Fold change /veh ID3 (11757404_x_at) / RFU PLEKHG5 (11737974_s_at) / Fold change /veh PLEKHG5 (11737974_s_at) / RFU LRRC4B (11730491_at) / Fold change /veh LRRC4B (11730491_at) / RFU GIMAP4 (11747438_a_at) / Fold change /veh GIMAP4 (11747438_a_at) / RFU KRT8 (11758183_x_at) / Fold change /veh KRT8 (11758183_x_at) / RFU CNN1 (11734310_a_at) / Fold change /veh CNN1 (11734310_a_at) / RFU VPS37D (11726825_at) / Fold change /veh VPS37D (11726825_at) / RFU C10orf10 (11716522_x_at) / Fold change /veh C10orf10 (11716522_x_at) / RFU KIR2DL2 /// KIR2DL4 /// KIR2DL5A /// KIR2DL5B /// KIR2DS1 /// KIR2DS2 /// KIR2DS3 /// KIR2DS4 /// KIR3DL3 /// KIR3DL3 /// KIR3DS1 (11738374_at) / Fold change /veh KIR2DL2 /// KIR2DL4 /// KIR2DL5A /// KIR2DL5B /// KIR2DS1 /// KIR2DS2 /// KIR2DS3 /// KIR2DS4 /// KIR3DL3 /// KIR3DL3 /// KIR3DS1 (11738374_at) / RFU C1QL1 (11718748_at) / Fold change /veh C1QL1 (11718748_at) / RFU TMPRSS4 (11747572_a_at) / Fold change /veh TMPRSS4 (11747572_a_at) / RFU HAMP (11756126_x_at) / Fold change /veh HAMP (11756126_x_at) / RFU RNFT2 (11725882_a_at) / Fold change /veh RNFT2 (11725882_a_at) / RFU NR4A2 (11747474_a_at) / Fold change /veh NR4A2 (11747474_a_at) / RFU ABCC12 (11746883_a_at) / Fold change /veh ABCC12 (11746883_a_at) / RFU TMEM136 (11760407_x_at) / Fold change /veh TMEM136 (11760407_x_at) / RFU CLDN22 /// WWC2 (11732394_at) / Fold change /veh CLDN22 /// WWC2 (11732394_at) / RFU HLA-DPB1 (11760878_x_at) / Fold change /veh HLA-DPB1 (11760878_x_at) / RFU SPINT1 (11716480_a_at) / Fold change /veh SPINT1 (11716480_a_at) / RFU GAP43 (11754022_s_at) / Fold change /veh GAP43 (11754022_s_at) / RFU A4GNT (11735810_at) / Fold change /veh A4GNT (11735810_at) / RFU PRB3 (11715151_x_at) / Fold change /veh PRB3 (11715151_x_at) / RFU TUBB4B (11761932_at) / Fold change /veh TUBB4B (11761932_at) / RFU CAPN14 (11732068_a_at) / Fold change /veh CAPN14 (11732068_a_at) / RFU TMCC2 (11721928_a_at) / Fold change /veh TMCC2 (11721928_a_at) / RFU IRGQ (11745062_a_at) / Fold change /veh IRGQ (11745062_a_at) / RFU FAM174B (11720279_a_at) / Fold change /veh FAM174B (11720279_a_at) / RFU TMPRSS4 (11748680_a_at) / Fold change /veh TMPRSS4 (11748680_a_at) / RFU FAM212B (11763350_a_at) / Fold change /veh FAM212B (11763350_a_at) / RFU PLEKHG5 (11743358_a_at) / Fold change /veh PLEKHG5 (11743358_a_at) / RFU ZSCAN30 (11745921_a_at) / Fold change /veh ZSCAN30 (11745921_a_at) / RFU CMKLR1 (11741424_a_at) / Fold change /veh CMKLR1 (11741424_a_at) / RFU LOC101060620 /// MAPK8IP1 (11723275_at) / Fold change /veh LOC101060620 /// MAPK8IP1 (11723275_at) / RFU SPTSSB (11747773_x_at) / Fold change /veh SPTSSB (11747773_x_at) / RFU PRSS12 (11739890_at) / Fold change /veh PRSS12 (11739890_at) / RFU BIN1 (11741810_x_at) / Fold change /veh BIN1 (11741810_x_at) / RFU WNT11 (11732464_a_at) / Fold change /veh WNT11 (11732464_a_at) / RFU C10orf10 (11716521_a_at) / Fold change /veh C10orf10 (11716521_a_at) / RFU C5orf56 (11738089_at) / Fold change /veh C5orf56 (11738089_at) / RFU CYB561 (11721691_x_at) / Fold change /veh CYB561 (11721691_x_at) / RFU ANKRD19P (11752326_a_at) / Fold change /veh ANKRD19P (11752326_a_at) / RFU OR2T12 /// OR2T33 /// OR2T8 (11738714_s_at) / Fold change /veh OR2T12 /// OR2T33 /// OR2T8 (11738714_s_at) / RFU VCAN (11748164_a_at) / Fold change /veh VCAN (11748164_a_at) / RFU JSRP1 (11732532_at) / Fold change /veh JSRP1 (11732532_at) / RFU KRTAP10-11 (11738290_x_at) / Fold change /veh KRTAP10-11 (11738290_x_at) / RFU MYO3A (11730013_a_at) / Fold change /veh MYO3A (11730013_a_at) / RFU EBF3 (11725865_a_at) / Fold change /veh EBF3 (11725865_a_at) / RFU CAMK2N1 (11719241_x_at) / Fold change /veh CAMK2N1 (11719241_x_at) / RFU C5orf56 (11738088_a_at) / Fold change /veh C5orf56 (11738088_a_at) / RFU OLFML3 (11715873_a_at) / Fold change /veh OLFML3 (11715873_a_at) / RFU LOC100653217 /// NTM (11731650_a_at) / Fold change /veh LOC100653217 /// NTM (11731650_a_at) / RFU MAPK11 (11762145_a_at) / Fold change /veh MAPK11 (11762145_a_at) / RFU FIZ1 (11724087_x_at) / Fold change /veh FIZ1 (11724087_x_at) / RFU OASL (11726364_x_at) / Fold change /veh OASL (11726364_x_at) / RFU SOX15 (11748057_x_at) / Fold change /veh SOX15 (11748057_x_at) / RFU CD79A (11719716_a_at) / Fold change /veh CD79A (11719716_a_at) / RFU HIST1H1D (11736915_at) / Fold change /veh HIST1H1D (11736915_at) / RFU CASKIN2 (11723855_a_at) / Fold change /veh CASKIN2 (11723855_a_at) / RFU LOC730098 (11760151_x_at) / Fold change /veh LOC730098 (11760151_x_at) / RFU OR4N2 (11742367_at) / Fold change /veh OR4N2 (11742367_at) / RFU PRRT2 (11749266_a_at) / Fold change /veh PRRT2 (11749266_a_at) / RFU SNX32 (11753110_a_at) / Fold change /veh SNX32 (11753110_a_at) / RFU CDHR5 (11726645_a_at) / Fold change /veh CDHR5 (11726645_a_at) / RFU RCAN1 (11760418_a_at) / Fold change /veh RCAN1 (11760418_a_at) / RFU FAM167A (11723789_a_at) / Fold change /veh FAM167A (11723789_a_at) / RFU FAM26E (11764081_at) / Fold change /veh FAM26E (11764081_at) / RFU ISYNA1 (11749810_s_at) / Fold change /veh ISYNA1 (11749810_s_at) / RFU ACY1 (11761880_at) / Fold change /veh ACY1 (11761880_at) / RFU 11764098_at / Fold change /veh 11764098_at / RFU SAMD14 (11745864_x_at) / Fold change /veh SAMD14 (11745864_x_at) / RFU NPB (11741838_a_at) / Fold change /veh NPB (11741838_a_at) / RFU TMPRSS6 (11731388_a_at) / Fold change /veh TMPRSS6 (11731388_a_at) / RFU KRTAP10-2 (11738614_at) / Fold change /veh KRTAP10-2 (11738614_at) / RFU ARHGAP8 /// PRR5-ARHGAP8 (11727945_x_at) / Fold change /veh ARHGAP8 /// PRR5-ARHGAP8 (11727945_x_at) / RFU KRTAP5-7 /// NADSYN1 (11734609_at) / Fold change /veh KRTAP5-7 /// NADSYN1 (11734609_at) / RFU RASL12 (11751679_a_at) / Fold change /veh RASL12 (11751679_a_at) / RFU CDKN2B (11736163_a_at) / Fold change /veh CDKN2B (11736163_a_at) / RFU PRF1 (11729649_at) / Fold change /veh PRF1 (11729649_at) / RFU, ZNF638 /// ZNF638-IT1 / Fold change vs veh, ZNF638 /// ZNF638-IT1 / RFU, PANK3 / Fold change vs veh, PANK3 / RFU, SH3YL1 / Fold change vs veh, SH3YL1 / RFU, ZEB2 / Fold change vs veh, ZEB2 / RFU, NRIP1 / Fold change vs veh, NRIP1 / RFU, PTTG1IP / Fold change vs veh, PTTG1IP / RFU, CAPN2 / Fold change vs veh, CAPN2 / RFU, MED14 / Fold change vs veh, MED14 / RFU, SNORA58 / Fold change vs veh, SNORA58 / RFU, C1orf63 / Fold change vs veh, C1orf63 / RFU, LRRFIP1 / Fold change vs veh, LRRFIP1 / RFU, NDUFAF7 / Fold change vs veh, NDUFAF7 / RFU, SLC12A2 / Fold change vs veh, SLC12A2 / RFU, IBTK / Fold change vs veh, IBTK / RFU, ESF1 / Fold change vs veh, ESF1 / Fold change vs veh, TMEM50B / RFU, TAOK1 / Fold change vs veh, TAOK1 / RFU, ACBD3 / Fold change vs veh, ACBD3 / RFU, TMA16 / Fold change vs veh, TMA16 / RFU, RWDD3 / Fold change vs veh, RWDD3 / RFU, BCAT1 / Fold change vs veh, BCAT1 / RFU, EDEM3 / Fold change vs veh, EDEM3 / RFU, TMEM33 / Fold change vs veh, TMEM33 / RFU, WDR75 / Fold change vs veh, WDR75 / RFU, AHCTF1 / Fold change vs veh, AHCTF1 / RFU, TFRC / Fold change vs veh, TFRC / RFU, ZDHHC17 / Fold change vs veh, ZDHHC17 / RFU, NOM1 / Fold change vs veh, NOM1 / RFU, ARL8B / Fold change vs veh, ARL8B / RFU, ZBTB11 / Fold change vs veh, ZBTB11 / RFU, TAMM41 / Fold change vs veh, TAMM41 / RFU, KIAA1704 /// LOC100996395 / Fold change vs veh, KIAA1704 /// LOC100996395 / RFU, ING1 / Fold change vs veh, ING1 / RFU, TRMT61B / Fold change vs veh, TRMT61B / RFU, FUBP3 / Fold change vs veh, FUBP3 / RFU, TP53 / Fold change vs veh, TP53 / RFU, TNKS2 / Fold change vs veh, TNKS2 / RFU, ZFP14 / Fold change vs veh, ZFP14 / RFU, ACTR2 / Fold change vs veh, ACTR2 / RFU, PPP3R1 / Fold change vs veh, PPP3R1 / RFU, PIK3R1 / Fold change vs veh, PIK3R1 / RFU, HNRNPA1 / Fold change vs veh, HNRNPA1 / RFU, RNF170 / Fold change vs veh, RNF170 / RFU, ZNF28 / Fold change vs veh, ZNF28 / RFU, RNGTT / Fold change vs veh, RNGTT / RFU, OGT / Fold change vs veh, OGT / RFU, BRD1 / Fold change vs veh, BRD1 / RFU, MARS / Fold change vs veh, MARS / RFU, ZNF655 / Fold change vs veh, ZNF655 / RFU, FAHD1 / Fold change vs veh, FAHD1 / RFU, BDP1 / Fold change vs veh, BDP1 / RFU, LRRCC1 / Fold change vs veh, LRRCC1 / RFU, ARID1A / Fold change vs veh, ARID1A / RFU, ZNF146 / Fold change vs veh, ZNF146 / RFU, ZNF330 / Fold change vs veh, ZNF330 / RFU, GPN3 / Fold change vs veh, GPN3 / RFU, C9orf123 / Fold change vs veh, C9orf123 / RFU, N4BP2L2 / Fold change vs veh, N4BP2L2 / RFU, ARFIP1 / Fold change vs veh, ARFIP1 / RFU, FAM179B / Fold change vs veh, FAM179B / RFU, BCL10 / Fold change vs veh, BCL10 / RFU, UHRF1BP1L / Fold change vs veh, UHRF1BP1L / RFU, BET1 / Fold change vs veh, BET1 / RFU, CNOT2 / Fold change vs veh, CNOT2 / RFU, ZNF268 / Fold change vs veh, ZNF268 / Fold change vs veh, ZNF507 / RFU, DGCR2 / Fold change vs veh, DGCR2 / RFU, WDSUB1 / Fold change vs veh, WDSUB1 / Fold change vs veh, HSP90B1 /// MIR3652 / RFU, ADSS / Fold change vs veh, ADSS / RFU, GK / Fold change vs veh, GK / RFU, ZNF148 / Fold change vs veh, ZNF148 / RFU, TAF9 / Fold change vs veh, TAF9 / RFU, SLC1A5 / Fold change vs veh, SLC1A5 / RFU, SLMO2 / Fold change vs veh, SLMO2 / RFU, ABCC4 / Fold change vs veh, ABCC4 / RFU, LOC101060439 /// RAP1B / Fold change vs veh, LOC101060439 /// RAP1B / RFU, RFX7 / Fold change vs veh, RFX7 / RFU, GTPBP10 / Fold change vs veh, GTPBP10 / RFU, CNEP1R1 / Fold change vs veh, CNEP1R1 / RFU, BIVM-ERCC5 /// ERCC5 / Fold change vs veh, BIVM-ERCC5 /// ERCC5 / RFU, ILF3 / Fold change vs veh, ILF3 / RFU 11762660_at / Fold change /veh 11762660_at / RFU VCAN (11757783_s_at) / Fold change /veh VCAN (11757783_s_at) / RFU DDX43 (11728927_at) / Fold change /veh DDX43 (11728927_at) / RFU KRT8 (11758188_x_at) / Fold change /veh KRT8 (11758188_x_at) / RFU NKD1 (11759106_at) / Fold change /veh NKD1 (11759106_at) / RFU SRD5A1 (11742802_a_at) / Fold change /veh SRD5A1 (11742802_a_at) / RFU TPSAB1 /// TPSB2 (11721975_s_at) / Fold change /veh TPSAB1 /// TPSB2 (11721975_s_at) / RFU GSTM3 (11746129_a_at) / Fold change /veh GSTM3 (11746129_a_at) / RFU IL23R (11737362_x_at) / Fold change /veh IL23R (11737362_x_at) / RFU TMEM51 (11727254_a_at) / Fold change /veh TMEM51 (11727254_a_at) / RFU PIWIL2 (11732686_x_at) / Fold change /veh PIWIL2 (11732686_x_at) / RFU ORM1 (11744905_x_at) / Fold change /veh ORM1 (11744905_x_at) / RFU CCDC152 (11743942_at) / Fold change /veh CCDC152 (11743942_at) / RFU ECM1 (11717891_a_at) / Fold change /veh ECM1 (11717891_a_at) / RFU IL23R (11748794_a_at) / Fold change /veh IL23R (11748794_a_at) / RFU TNFAIP8L3 (11732012_x_at) / Fold change /veh TNFAIP8L3 (11732012_x_at) / RFU MBOAT4 (11741988_at) / Fold change /veh MBOAT4 (11741988_at) / RFU 11764193_at / Fold change /veh 11764193_at / RFU TMEM53 (11763286_at) / Fold change /veh TMEM53 (11763286_at) / RFU MAGEB2 (11727129_at) / Fold change /veh MAGEB2 (11727129_at) / RFU TMEM200A (11744735_a_at) / Fold change /veh TMEM200A (11744735_a_at) / RFU CCDC152 (11751479_a_at) / Fold change /veh CCDC152 (11751479_a_at) / RFU FAM211A (11726209_a_at) / Fold change /veh FAM211A (11726209_a_at) / RFU RGS16 (11746705_a_at) / Fold change /veh RGS16 (11746705_a_at) / RFU VCAN (11755009_s_at) / Fold change /veh VCAN (11755009_s_at) / RFU RHOB (11743442_s_at) / Fold change /veh RHOB (11743442_s_at) / RFU RGS16 (11720943_a_at) / Fold change /veh RGS16 (11720943_a_at) / RFU RGS16 (11720944_at) / Fold change /veh RGS16 (11720944_at) / RFU, VPS4B / Fold change vs veh, VPS4B / RFU, CREB1 / Fold change vs veh, CREB1 / RFU, DNAJC13 / Fold change vs veh, DNAJC13 / RFU, GNAQ / Fold change vs veh, GNAQ / RFU, CDK5R1 / Fold change vs veh, CDK5R1 / RFU, ZRANB3 / Fold change vs veh, ZRANB3 / RFU, CUL4A / Fold change vs veh, CUL4A / RFU, CCNY / Fold change vs veh, CCNY / RFU, UFL1 / Fold change vs veh, UFL1 / RFU, COG3 / Fold change vs veh, COG3 / RFU, DIAPH2 / Fold change vs veh, DIAPH2 / RFU, SKA2 / Fold change vs veh, SKA2 / RFU, AFF3 / Fold change vs veh, AFF3 / RFU, LMF1 / Fold change vs veh, LMF1 / RFU, IPO11 / Fold change vs veh, IPO11 / RFU, DFFB / Fold change vs veh, DFFB / RFU, FOXP1 / Fold change vs veh, FOXP1 / RFU, CARD8 / Fold change vs veh, CARD8 / RFU, STRN3 / Fold change vs veh, STRN3 / RFU, ADK / Fold change vs veh, ADK / RFU, RASSF2 / Fold change vs veh, RASSF2 / RFU, WIPF1 / Fold change vs veh, WIPF1 / RFU, LARP1B / Fold change vs veh, LARP1B / RFU, RASA1 / Fold change vs veh, RASA1 / RFU, RB1 / Fold change vs veh, RB1 / RFU, PPFIA1 / Fold change vs veh, PPFIA1 / RFU, MAT2A / Fold change vs veh, MAT2A / RFU, CCT5 / Fold change vs veh, CCT5 / RFU, WDR92 / Fold change vs veh, WDR92 / RFU, CUX1 / Fold change vs veh, CUX1 / RFU, TTC7A / Fold change vs veh, TTC7A / RFU, TMEM135 / Fold change vs veh, TMEM135 / RFU, DEPTOR / Fold change vs veh, DEPTOR / RFU, CPM / Fold change vs veh, CPM / RFU, DNAJB6 / Fold change vs veh, DNAJB6 / RFU, CACNA2D3 / Fold change vs veh, CACNA2D3 / RFU, DTX4 / Fold change vs veh, DTX4 / RFU, TFCP2 / Fold change vs veh, TFCP2 / RFU, GMCL1 /// GMCL1P1 / Fold change vs veh, GMCL1 /// GMCL1P1 / RFU, AEBP2 / Fold change vs veh, AEBP2 / RFU, SNHG1 /// SNORD22 /// SNORD25 /// SNORD26 /// SNORD27 /// SNORD28 /// SNORD29 /// SNORD31 / Fold change vs veh, SNHG1 /// SNORD22 /// SNORD25 /// SNORD26 /// SNORD27 /// SNORD28 /// SNORD29 /// SNORD31 / Fold change (Aza/veh), C12orf56 (ProbeSet 11735607_a_at) / Fold change (ACY-1035/veh), C12orf56 (ProbeSet 11735607_a_at) / Fold change (Aza/veh), FGFR1OP (ProbeSet 11751329_s_at) / Fold change (ACY-1035/veh), FGFR1OP (ProbeSet 11751329_s_at) / Fold change (Aza/veh), VPS36 (ProbeSet 11739960_a_at) / Fold change (ACY-1035/veh), VPS36 (ProbeSet 11739960_a_at) / RFU SYPL1 (11715823_x_at) / Fold change /veh SYPL1 (11715823_x_at) / RFU IGFBP7 (11715501_s_at) / Fold change /veh IGFBP7 (11715501_s_at) / RFU REEP3 (11722064_at) / Fold change /veh REEP3 (11722064_at) / RFU IGLL1 (11728026_x_at) / Fold change /veh IGLL1 (11728026_x_at): dose or concentration left out as unconfirmed. In kind it is cell-based, human.

As to `Nc1ccc(-c2cccs2)cc1NC(=O)c1ccc2c(c1)cc(C1CC1)n2CCN1CCOCC1` [ACY-1035], the “Fold change vs veh, IBTK” value was 0.91.
